# Source: ChEMBL document CHEMBL1201862, “PubChem BioAssay data set” (2004)
# Structures can show the parent of a compound that is named as a salt. Calls of active or inactive are those of the source.
# Columns and labels:
# fMet-Leu-Phe receptor = target: T1, fMet-Leu-Phe receptor (Homo sapiens, UniProt P21462); test: FPR ligands, dose response (AID 519); format: functional
# T1 sequence (P21462 whole entry): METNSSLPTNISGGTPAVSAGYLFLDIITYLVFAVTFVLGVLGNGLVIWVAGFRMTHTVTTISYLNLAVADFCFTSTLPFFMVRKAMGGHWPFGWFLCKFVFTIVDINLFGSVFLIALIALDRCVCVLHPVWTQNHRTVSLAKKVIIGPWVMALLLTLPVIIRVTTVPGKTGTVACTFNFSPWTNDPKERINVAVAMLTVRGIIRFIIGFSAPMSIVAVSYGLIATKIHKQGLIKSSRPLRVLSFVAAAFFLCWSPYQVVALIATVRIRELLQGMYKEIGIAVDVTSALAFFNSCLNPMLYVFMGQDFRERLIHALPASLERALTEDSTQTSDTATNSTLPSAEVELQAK
# Streptococcus = test: Group A Streptococcus viability loss, dose response, counter-screen for streptokinase expression inhibitor project, luminescence, BacTiterGlo (AID 1915); format: functional, organism-based;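 further: potency for reduction of bacterial viability or growth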
# [1] = NIH-3T3 fibroblast cytotoxicity, dose response, cytotoxicity control, cell-based, fluorescence, Alamar Blue, secondary assay (AID 2327); format: functional;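 further: NIH-3T3 mouse fibroblasts cultured with fluconazole at 8 µg/mL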
# [2] = test system: Streptococcus sp. 'group A'; test: growth inhibition of control SK(-) GAS strain, dose response, counter-screen for streptokinase expression inhibitor project, luminescence, kanamycin, BacTiterGlo, confirmation (AID 1900); format: functional, organism-based
# [3] = CEM21 lymphoblast cell cytotoxicity, dose response, cytotoxicity control for viral fusion inhibitor project, CellTiter-Glo luminescence, cherry-picked (AID 652042); format: functional, cell-based;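 further: potency for signal decrease meaning cytotoxicity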
# [4] = inhibitors of clade B AD8 Env fusion, dose response, cell-based, cherry-pick (AID 652062); format: functional;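 further: luciferase signal from cell-cell fusion driven by HIV-1 clade B AD8 Env; potency is for inhibitors of fusion seen as a drop in luminescence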
# [5] = C. albicans growth with fluconazole, confirmation, fluorescence, retest (AID 2467); format: functional, cell-based
# [6] = ZM109 Env clade C HIV-1 fusion inhibitors, dose response, HeLa effector, CEM target cells, luciferase, cherry-pick (AID 652058); format: functional, cell-based
# [7] = inhibitors of HIV Env-driven cell fusion, dose response, cherry-pick (AID 652057); format: functional, cell-based
# INS1 = test: beta cell apoptosis inhibitors, cytokine rescue, dose response, luminescence, retest (AID 449756); format: functional, cell-based; conditions: Rattus norvegicus;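 further: cell death triggered by IL-1 beta plus TNF-alpha plus IFN-gamma mixture; protective hits raise ATP signal compared with cytokine alone wells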
# [8] = Counterscreen for activators of the function of SWI/SNF related, matrix associated, actin dependent regulator of chromatin, subfamily a, member 2 (SMARCA2, BRM): Luminescence-based cell-based high throughput dose response assay to identify non-selective compounds using the VP16 reporter assay.; format: functional
# [9] = target: T2, Heat shock factor protein 1 (Mus musculus, UniProt P38532); test: inhibition of MG132-induced HSE-luciferase signal, confirmation, cell-based, NIH3T3, luminescence, dose retest (AID 2382); format: functional;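 further: NIH3T3 fibroblasts with HSF1-driven luciferase reporter stressed by proteasome inhibitor MG132; luminescence from HSF1-driven luciferase expression after 8 hours of MG132 stress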
# T2 sequence (P38532 whole entry): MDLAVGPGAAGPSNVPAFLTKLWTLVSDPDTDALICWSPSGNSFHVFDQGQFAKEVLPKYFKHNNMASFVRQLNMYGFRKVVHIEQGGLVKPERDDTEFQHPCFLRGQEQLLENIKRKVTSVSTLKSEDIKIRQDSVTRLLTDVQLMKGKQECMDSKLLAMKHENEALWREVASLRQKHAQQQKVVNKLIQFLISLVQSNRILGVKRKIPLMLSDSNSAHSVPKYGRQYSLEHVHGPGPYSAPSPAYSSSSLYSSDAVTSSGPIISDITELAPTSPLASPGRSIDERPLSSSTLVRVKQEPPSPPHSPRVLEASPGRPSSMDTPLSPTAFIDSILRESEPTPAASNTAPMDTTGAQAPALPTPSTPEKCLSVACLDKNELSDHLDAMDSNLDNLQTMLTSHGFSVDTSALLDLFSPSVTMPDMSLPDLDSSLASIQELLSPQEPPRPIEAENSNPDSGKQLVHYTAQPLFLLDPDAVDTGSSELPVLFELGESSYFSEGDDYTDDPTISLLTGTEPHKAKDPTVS
# [10] = target: SWI/SNF-related matrix-associated actin-dependent regulator of chromatin subfamily A member 2 (Homo sapiens, UniProt P51531); test: Luminescence-based cell-based high throughput dose response assay to identify activators of the function of SWI/SNF related, matrix associated, actin dependent regulator of chromatin, subfamily a, member 2 (SMARCA2, BRM).; format: functional
# Major prion protein = Major prion protein (Homo sapiens, UniProt P04156); format: functional, cell-based
# Paired box protein Pax-8 = Paired box protein Pax-8 (Homo sapiens, UniProt Q06710); test: inhibitors of PAX8-driven TPO luciferase reporter, dose response, RMG-I cells, cherry-pick (AID 687027); format: functional, cell-based;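 further: luciferase reporter driven by Pax8 target thyroperoxidase promoter measured by SteadyGlo luminescence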
# [11] = off-target signal loss in HeLa-CEM21 co-culture – HeLa F-luc CTL cells, cherry-picked, counter-screen for HIV-1 Env fusion inhibitor project, dose response (AID 652040); format: functional, cell-based;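 further: potency for signal decrease marking cytotoxic or nonspecific inhibition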
# [12] = cytotoxicity in OVCAR8 ovarian cancer cells, dose response, PAX8 project, cell-based, plate reader, dry powder samples (AID 743197); format: functional; conditions: OVCAR-8
# [13] = MC4R antagonists, dose response, counter-screen for LGR2 antagonist project, cell-based, plate reader, cherry pick (AID 743444); format: functional;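 further: transfected HEK 293 cells stimulated with alpha-MSH peptide; potency of inhibitors of the alpha-MSH evoked signal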
# [14] = LGR2 antagonists, dose response, cell-based, HEK293, CRE-luciferase reporter, cherry pick, set 2 (AID 743343); format: functional;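 further: transfected cells were stimulated with diluted bursicon conditioned medium after compound addition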
# [15] = A549 cell cytotoxicity, dose response, cytotoxicity control, plate reader, cherry-pick, antagonist series (AID 743412); format: functional, cell-based
# [16] = HEK293 cell cytotoxicity, dose response, cytotoxicity control, plate reader, cherry-picked samples (AID 743446); format: functional, cell-based
# [17] = HepG2 cell cytotoxicity, dose response, cytotoxicity control, plate reader, cherry-pick, antagonist series (AID 743416); format: functional, cell-based
# [18] = T. cruzi growth inhibition in host cells, dose response, cell-based, plate reader, dry powder, set 2 (AID 652275); format: functional
# Vero = test: Vero cell toxicity, dose response, cytotoxicity control, plate reader, cherry-pick samples (AID 687020); format: functional, cell-based; conditions: Chlorocebus sabaeus
# [19] = SNU-C1 cell viability reduction, dose response, CellTiter-Glo luminescence (AID 1117323); format: functional, cell-based
# [20] = cytotoxicity toward HCT116 cells – cell-based, CellTiter-Glo luminescence, IC50, dose response (AID 1117332); format: functional; conditions: HCT-116
# [21] = cytotoxicity toward Colo320 cells – cell-based, CellTiter-Glo luminescence, IC50, dose response (AID 1117334); format: functional; conditions: COLO 320
# [22] = CellTiter-Glo luminescent dose response of DLD-1 viability loss (AID 1117352); format: functional
# [23] = RKO cell viability reduction, dose response, CellTiter-Glo luminescence (AID 1117322); format: functional
# [24] = Concentration-dependent survival of SW480 colon cancer line, luminescence detection with CellTiter-Glo, half-maximal inhibitory concentration (AID 1117338); format: functional
# [25] = cytotoxicity toward HT-29 cells – cell-based, CellTiter-Glo luminescence, IC50, dose response (AID 1117330); format: functional
smiles,measurement,setting,value
COc1ccc(C(=O)C2=C(O)C(=O)N(Cc3ccco3)C2c2ccc(OC)cc2OC)cc1 (stereo unspecified),Ki,fMet-Leu-Phe receptor,> 66.7 µM (inactive)
CC1CCCCN1S(=O)(=O)c1ccc(C(=O)Nc2nnc(-c3cccs3)o2)cc1 (stereo unspecified),EC50,Streptococcus,4.49 µM (active)
same,EC50,[1],> 150 µM (inactive)
same,EC50,[2],2.05 µM (active)
same,AC50,[3],35.7 µM (active)
same,AC50,[4],16.6 µM (active)
same,EC50,[5],1.11 µM (active)
same,AC50,[6],14.6 µM (active)
same,AC50,[7],32.8 µM (active)
O=C(Oc1c(CN2CCOCC2)cc(Cl)c2cccnc12)c1ccccc1Br,EC50,[1],135 µM (active)
same,AC50,INS1,6.56 µM (active)
same,EC50,[8],> 91.1 µM (inactive)
same,EC50,[5],3.49 µM (active)
same,EC50,[9],31.3 µM (active)
same,EC50,[10],> 91.1 µM (inactive)
N=C(NOC(=O)COc1ccc2ccccc2c1Br)c1ccccn1,IC50,Major prion protein,4.71 µM (active)
same,IC50,cells,> 138 µM (inactive)
Nc1ncnc2c(C3OC(CO)C(O)C3O)scc12 (stereo unspecified),AC50,Paired box protein Pax-8,< 0.26 µM (active)
same,AC50,[3],< 0.26 µM (active)
same,AC50,[4],3.45 µM (active)
same,AC50,[11],3.78 µM (active)
same,AC50,[6],2.04 µM (active)
same,AC50,[7],0.322 µM (active)
O=C(C[C@@H]1CC[C@H]2[C@@H](COC[C@@H](O)CN2Cc2cccc(C(F)(F)F)c2)O1)NCc1ccc(F)cc1,AC50,Paired box protein Pax-8,27.9 µM (active)
same,AC50,[12],51.7 µM (active)
O=C1c2ccccc2S(=O)(=O)c2cc(N3CCN(C(=O)c4ccccc4)CC3)ccc21,AC50,[13],22.3 µM (active)
same,AC50,[14],20.8 µM (active)
same,AC50,[15],23.5 µM (active)
same,AC50,[16],> 52 µM (inactive)
same,AC50,[17],> 52 µM (inactive)
CC(C)N1C[C@@H](CN(C)Cc2ccc(Cl)cc2)Oc2c(NC(=O)c3ccncn3)cccc2C1=O,AC50,[18],0.00548 µM (active)
CN(C)C(=O)c1cccc(-c2ccc([C@@H]3[C@@H](CO)N4CCCCN(C(=O)C5CCC5)C[C@H]34)cc2)c1,AC50,[18],14.4 µM (active)
CCc1c(C)[nH]c2c(C#N)c(C)nn2c1=O,Ki,fMet-Leu-Phe receptor,21.7 µM (inactive)
O=C(O)c1cc(=O)c2c(OCC(O)COc3cccc4oc(C(=O)O)cc(=O)c34)cccc2o1 [CROMOLYN SODIUM],AC50,Vero,34.3 µM (active)
CCN(CCO)CCCC(C)Nc1ccnc2cc(Cl)ccc12 (stereo unspecified) [HYDROXYCHLOROQUINE SULFATE],IC50,[19],> 20 µM (inactive)
same,IC50,[20],> 20 µM (inactive)
same,IC50,[21],> 20 µM (inactive)
same,IC50,[22],> 20 µM (inactive)
same,IC50,[23],> 20 µM (inactive)
same,IC50,[24],> 20 µM (inactive)
same,IC50,[25],> 20 µM (inactive)
